# Data reported in patent US20100160250A1, “METHOD FOR TREATING INFLAMMATORY CONDITIONS” (priority 2008, published 2010).
# Key:
# Type in all cases: cell-based
# P2X7 receptor [1] = biological target: T1, P2X7 receptor (Homo sapiens, UniProt Q99572); test: Calcium signalling (Fluo-3, FLIPR) in 1321N1 cells expressing P2X7, BzATP challenge; set-up: expressed in transfected cells; host or cells: human astrocytoma 1321N1 cells; conditions: human astrocytoma 1321N1 cells expressing P2X7, 30 uM BzATP; read-out: Inhibition of Ca^+2 signaling IC50
# T1 sequence (Q99572 1-595): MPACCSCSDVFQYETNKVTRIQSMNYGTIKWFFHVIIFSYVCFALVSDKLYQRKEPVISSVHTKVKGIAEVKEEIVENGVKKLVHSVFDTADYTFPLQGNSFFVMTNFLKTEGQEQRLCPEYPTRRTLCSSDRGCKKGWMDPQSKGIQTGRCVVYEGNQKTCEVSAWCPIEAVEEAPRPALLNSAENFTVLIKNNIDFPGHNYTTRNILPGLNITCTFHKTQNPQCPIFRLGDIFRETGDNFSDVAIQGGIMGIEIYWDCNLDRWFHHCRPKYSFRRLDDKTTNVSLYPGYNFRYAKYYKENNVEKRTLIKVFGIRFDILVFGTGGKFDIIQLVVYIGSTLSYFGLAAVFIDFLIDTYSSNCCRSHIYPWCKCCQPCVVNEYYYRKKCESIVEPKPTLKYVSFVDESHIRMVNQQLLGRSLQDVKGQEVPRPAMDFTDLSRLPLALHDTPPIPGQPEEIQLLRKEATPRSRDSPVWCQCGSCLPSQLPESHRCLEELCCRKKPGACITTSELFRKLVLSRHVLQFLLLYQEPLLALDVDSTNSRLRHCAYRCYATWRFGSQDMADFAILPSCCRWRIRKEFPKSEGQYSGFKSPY
# Method: Inhibition of Ca^2+ influx into the cell by antagonists of the P2X7 receptor measures inhibition of the ion channel activity of the P2X7 receptor.
# Human astrocytoma (1321N1) cells expressing P2X7 were grown to confluency in 96-well plates. Cells were loaded with a solution of Fluo-3 AM (2.5 μM final concentration) in an assay buffer consisting of 10 mM KCl, 118 mM NaCl, 0.25 mM CaCl2, 1 mM MgCl2, 20 mM HEPES, 10 mM glucose, pH 7.4. After a 60-minute incubation with Fluo-3 AM at 25° C., cells were washed and stimulated with serially diluted concentrations of compound and then challenged with 30 uM BzATP. Calcium fluorescence was measured using the FLIPR 89 (Molecular Devices Corp., Sunnyvale, Calif.) and results were calculated using Prism Graph Pad version 3.03 (San Diego, Calif.). Inhibition of calcium dependent fluorescence indicates the assayed compound is an antagonist of the P2X7 receptor.
# P2X7 receptor [2] = biological target: T1, P2X7 receptor; test: IL-1β secretion assay in LPS-primed human monocytes stimulated with ATP; set-up: monocytes were selected by adherence to the tissue culture plastic; endogenous in cells; host or cells: LPS-primed adherent monocytes from human peripheral blood; conditions: human peripheral blood monocytes, 1 ng/mL LPS, 1 mM ATP, 30 min; read-out: IL1β inhibition IC50
# Text: Inhibition of IL-1β release by antagonists of the P2X7 receptor is a model of ameliorating inflammatory condition. This assay is an in vitro assay of cytokine secretion that can be used to evaluate the ability of compounds of this invention of Formula I to inhibit cytokine secretion, as the secretion of cytokines contributes to the inflammation in asthma, COPD and other pulmonary diseases, as well as in RA, IBD and neuropathic pain.
# Peripheral blood from healthy human volunteers was collected in an acid-citrate-dextrose (ACD) buffer to prevent clotting, layered over a Ficoll-Paque gradient (1:1), and centrifuged for 45 minutes at 1200 rpm. The interface between the plasma layer and the Ficoll layer (buffy coat) was then diluted in RPMI 1640/10% heat inactivated FBS and centrifuged for 10 minutes at 1500 rpm. The resultant pellet was re-suspended in media containing 1 ng/mL lipopolysaccharide (LPS) and plated at a density of 500,000 cells/mL. After a 3 hour incubation (37° C., 5% CO2, humidified air) monocytes were selected by adherence to the tissue culture plastic by washing wells with media. Following the media wash, cells were incubated for 2 minutes with the antagonists prior to the addition of 1 mM ATP. Cells were allowed to incubate with compounds for 30 minutes at 37° C. after which the supernatant was removed for immediate determination of IL-1β concentration. The concentration of IL-1β in cell supernatants was measured using the Bio-Plex (Bio-Rad) system according to manufacture's instructions and inhibition constants were calculated using Prism Graph Pad version 3.03 (San Diego, Calif.). IC50 values represent the concentrations of antagonist compounds necessary to inhibit 50% of the activity (calcium dependent fluorescence or IL-1β concentration) elicited by a given concentration of ATP.
# P2X7 receptor [3] = biological target: T1, P2X7 receptor; test: Pore formation assay (Yo-Pro dye influx) in 1321N1 cells expressing P2X7, BzATP challenge; set-up: expressed in transfected cells; host or cells: human astrocytoma 1321N1 cells; conditions: 1321N1 cells expressing P2X7, 100 uM BzATP, Yo-Pro fluorescence after 90 minutes
# Method: Inhibition of Yo-Pro fluorescent dye influx into the cells following P2X7 receptor activation provides a read-out of compounds potency in inhibition of pore formation activity of the P2X7 receptor.
# Assay was conducted essentially as in Alcaraz et al. Human astrocytoma (1321N1) cells expressing P2X7 were seeded in 96-well plates at a density of 200,000 cells/well in assay buffer consisting of 5 mM KCl, 140 mM KAspartate, 10 mM glucose, 10 mM Hepes pH 7.0, 10 mM N-methyl-D-glucoseamine, 1 mM EDTA and 1 uM Yo-Pro dye. Cells were exposed to serially diluted concentrations of compound and then challenged with 100 uM BzATP. Yo-Pro fluorescence was measured after 90 minutes. Inhibition of Yo-Pro dependent fluorescence indicates the assayed compound is an antagonist of the P2X7 receptor.
SMILES,IC50 (P2X7 receptor [1]) [nM],IC50 (P2X7 receptor [2]) [nM],IC50 (P2X7 receptor [3]) [nM]
O=C(Nc1ncnc2c1ncn2[C@@H]1O[C@H](C(=O)O)C2OC3(CCCCC3)O[C@@H]21)NC12CC3CC(CC(C3)C1)C2 (stereo partly drawn) [Compound 38],597,98,52
"O=C(Nc1ncnc2c1ncn2[C@@H]1O[C@H](CO)C2OC3(CCCCC3)O[C@@H]21)NC1CCCCC1 (stereo partly drawn) [Compound 39, 6-(cyclohexylurea)adenosine 2′,3′-cyclohexyl ketal]",477,65,346
CCNC(=O)OC[C@H]1O[C@@H](n2cnc3c(NC(=O)NC4CCCCC4)ncnc32)[C@H]2OC3(CCCCC3)OC12 (stereo partly drawn) [Compound 46],852,99,234
"O=C(Nc1ncnc2c1ncn2[C@@H]1O[C@H](C(=O)NCCO)C2OC3(CCCCC3)O[C@@H]21)NC1CCCCC1 (stereo partly drawn) [Compound 44, 6-(cyclohexylurea)adenosine 2′,3′-cyclohexyl ketal 5′-(2-hydroxy)ethyl carboxamide]",404,58,257
"CCNC(=O)[C@H]1O[C@@H](n2cnc3c(NC(=O)NC4CCCCC4)ncnc32)[C@H]2OC3(CCCCC3)OC12 (stereo partly drawn) [Compound 43, 6-(cyclohexylurea)adenosine 2′,3′-cyclohexyl ketal 5′-ethyl carboxamide]",295,69,152
